Results on 13 molecules are retold here after patent publication US20090018118A1, “HETEROCYCLIC COMPOUNDS” (priority 2005, published 2009).

SMILES strings stand for the structures. Structures can show the parent of a compound that is named as a salt. Where two headings read alike, the source gives them in different places.

In data set [1] the test system is cholesterol biosynthesis in HepG2 cells. Kind of data set: Metabolic labeling of HepG2 cells with [3H]acetate; radio-HPLC sterol profile (inhibition of cholesterol biosynthesis). Type of data set: cell-based, human. The note with it: for activity at 10 µM: Homo sapiens, 24 h, Table I, sterol level normalized to normal medium (1.00), mean of 4 experiments. How it is done:
In accordance with the aims of the invention, the effect of the novel compounds on inhibition of cholesterol biosynthesis is assessed. An ex vivo method of metabolic labeling of immortal human hepatocytes is employed. The radioactively labeled early precursor of cholesterol [3H]acetate is added to cells with or without addition of an active new compound.
An ex vivo method of metabolic labeling of immortal human hepatocytes is employed. The radioactively labeled early precursor of cholesterol [3H]acetate is added to cells with or without addition of an active compound.
Cell culture incubation with potential inhibitors of cholesterol biosynthesis and statins Human hepatoma cell line (HepG2-ATCC No. HB-8065) is split in the recommended ratio (1:2-3) into 75 cm^2 cell flasks using two flasks per experimental condition. Cells are incubated at 37° C. with 5% CO2 in Dulbeco's modified Eagle medium (DMEM high (Sigma)) containing 5% calf serum (Sigma) and 1% L-glutamine (Sigma). After 24-hours-culturing in the growth medium, the medium is replaced with the one supplemented with 10 μM concentration of a LK compound, potential inhibitor of cholesterol biosynthesis. 10 μM solution of atorvastatin, inhibitor of HMG-CoA reductase, serves as a positive control.
After 24 hours the growth medium is changed and [^3H]acetate (NEN™ Life Science Products) added in a concentration of 40 μCi per ml of the medium (400 μCi per flask). After 4 hours cells are harvested using 2 ml of trypsin (Sigma) and the cell pellet is resuspended in 1 ml of distilled water. Cells are homogenized using the freeze and thaw method. From cell homogenate sterols are extracted and protein concentration determined using the Bio-Rad reagent.
Homogenates are transferred into 4 ml glass vial and sterols are extracted in 3 ml of extraction solution (75% n-heptane: 25% isopropanol (vol./vol.)) with ergosterol as an internal standard. For better extraction 100 μl of 0.3M NaH2PO4 (pH=1.0) is added. Closed vials are vigorously shaken (1800 rpm) for 2 hours. After extraction procedure vials are centrifuged (2000 g, 10 min) and the organic phase is transferred to fresh conical glass tubes. Extraction procedure is repeated using 1 ml of extraction solution for 15 min. Organic phases are pooled. Primary extracts are dried in vacuum centrifuge, redissolved in 3 ml of n-heptane, and incubated for 10 min at room temperature with mild shaking. After centrifugation (10 min, 2000 g) extracts are transferred into fresh glass tubes and stored in dark and cold.
The organic phase is dried, reconstituted in mobile phase for reversed phase HPLC separation and loaded onto a-HPLC column, Prism-RPN, 5 μm, 250×4,6 mm running in 100% acetonitrile at 1.00 ml/min at 40° C. temperature. Scintillation liquid is added after UV detection at 30 ml/h, at room temperature, to evaluate tritium labeled sterols on a radio detector.
Sterols are determined by comparing the eluted peaks with runs of commercial standards of lanosterol, ergosterol, desmosterol, zymosterol, 7-dehydrocholesterol, lathosterol and cholesterol or laboratory standards (FF-MAS-4,4-Dimethylcholesta-8(9),14,24-triene-3β-ol- and T-MAS-4,4-Dimethylcholesta8(9),24,diene-3,6-ol, Laboratory of Reproductive Biology, The Juliane Marie Center for Children, Women and Reproduction, University Hospital of Copenhagen, DK-2100 Copenhagen, Denmark). Results were normalized on ergosterol quantity and protein concentration. Results are presented as a mean from 4 separated experiments.
The influence of a 10 μM solution of novel LK-substances on cholesterol biosynthesis in the assay on HepG2 cells is presented in Table I. Compounds are arranged according to the building blocks, three of them are 2-pyridineethanols, 2-pyridineethylpiperazines and pyridinemethylpiperazines.
Normal medium pertains to cell cultures without a compound of the invention. Its sterol levels were used for normalization. 10 μM solution of atorvastatin serves as a positive control.

[2] abbreviates: Table II (arranged by sterol profile), 10 μM compound, HepG2, normalized to normal medium (1.00).

As a reminder, the melting point is the temperature of the solid-liquid transition. `OC(CN1CCN(CCc2ccccc2)CC1)c1cccnc1` (stereo not shown) (as salt: hydrobromid) [LK-980, 2-(4-Phenethylpiperazine-1-yl)-1-(pyridine3-yl)-1-ethanol trihydrobromide] displayed a melting point of 178 to 181 °C.

Regarding `c1ccc(CCN2CCN(CCc3cccnc3)CC2)cc1` (as salt: hydrobromid) [LK-9100, 1-Phenethyl-4-(2-(pyridine-3-yl)ethyl)piperazine trihydrobromide], the melting point is 219 to 222 °C.

As to `COc1ccc(CN2CCN(CCc3ccccc3)CC2)cn1` (as salt: hydrobromid) [LK-9106, 1-((6-Methoxypyridin-3-yl)methyl)-4-phenethylpiperazine trihydrobromide], the melting point lay within 215 to 217 °C.

On to `FC(F)(F)c1ccc(CN2CCN(CCc3ccccc3)CC2)cn1` (as salt: hydrobromid) [LK-9107, 1-Phenethyl-4-((6(trifluoromethyl)pyridine-3-yl)methyl)piperazine trihydrobromide], for which the melting point lay in the range of 225 to 228 °C.

With `FC(F)(F)c1cnc(N2CCCN(CCc3ccccc3)CC2)c(Cl)c1` (as salt: hydrobromid) [LK-9115, 1-(3-Chloro-5-(trifluoromethyl)pyridine-2-yl)-4-phenethyl-1,4-diazepane trihydrobromide], the melting point was in the range of 175 to 177 °C.

`Fc1ccc(CCN2CCN(CCc3ccncc3)CC2)cc1F` (as salt: hydrobromid) [LK-9131, 1-(3,4-di-Fluorophenethyl)-4-(2-(pyridin-4-yl)ethyl)piperazine trihydrobromide] returned a melting point of 256 to 259 °C.

The molecule `Clc1ccc(CCN2CCN(CCc3ccncc3)CC2)cc1Cl` (as salt: hydrobromid) [LK-9135, 1-(3,4-Dichlorophenethyl)-4-(2-(pyridin-4-yl)ethyl)piperazine trihydrobromide] yielded a melting point of 253 to 255 °C.

The molecule `Clc1ccc(CCN2CCN(CCc3ccccn3)CC2)cc1Cl` (as salt: hydrobromid) [LK-9137, 1-(3,4-Dichlorophenethyl)-4-(2-(pyridin-2-yl)ethyl)piperazine trihydrobromide] displayed a melting point of 207 to 209 °C.

Turning to `Fc1ccc(CCN2CCN(CCc3ccccn3)CC2)cc1F` (as salt: hydrobromid) [LK-9138, 1-(3,4-Difluorophenethyl)-4-(2-(pyridin-2-yl)ethyl)piperazine trihydrobromide], the melting point lay within 212 to 213 °C.

`c1ccc(CCN2CCN(CCCc3cccnc3)CC2)cc1` (as salt: hydrobromid) [LK-9140, 1-Phenethyl-4-(3-(pyridine-3-yl)propyl)piperazine trihydrobromide] registered a melting point of 262 to 264 °C.

The molecule `OC(CN1CCN(c2ccc(F)cc2)CC1)c1cccnc1` (stereo not shown) (as salt: hydrobromid) [LK-9144, 2-(4-(4-Fluorophenyl)piperazine-1-yl)-1-(pyridine-3-yl)ethanol trihydrobromide] gave a melting point of 198 to 201 °C.

For the molecule `OC(CN1CCN(Cc2ccc(F)cc2)CC1)c1cccnc1` (stereo not shown) (as salt: hydrobromid) [LK-9148, 2-(4-(4-Fluorobenzyl)piperazine-1-yl)-1-(pyridine-3-yl)ethanol trihydrobromide], the melting point was in the range of 220 to 223 °C.

Consider `CC(C)c1c(C(=O)Nc2ccccc2)c(-c2ccccc2)c(-c2ccc(F)cc2)n1CC[C@@H](O)C[C@@H](O)CC(=O)O` [atorvastatin, reference compound], for which the “de novo cholesterol biosynthesis (in words)” value in data set [1] (10 μM, HepG2, radio-HPLC chromatograms) is reported as “complete suppression of cholesterol biosynthesis as well as cholesterol precursors”. For the same molecule, the activity at 10 µM in data set [1] (10 μM compound, HepG2, read-out: FF-MAS) was found to be 0%; in data set [1] (10 μM compound, HepG2, read-out: cholesterol), 0%; in data set [1] (10 μM compound, HepG2, read-out: desmosterol) it was 0%; in data set [1] (10 μM compound, HepG2, read-out: lanosterol) it was 0%; in data set [1] (10 μM compound, HepG2, read-out: lathosterol) it was 0%; in data set [1] (10 μM compound, HepG2, read-out: zymosterol+7-dehydrocholesterol), 0%. The molecule further returned an FF-MAS in data set [1] (setting [2]) of 0.00. The cholesterol in data set [1] (setting [2]) stood at 0.00. The molecule also displayed a desmosterol in data set [1] (setting [2]) of 0.00. In addition, in data set [1] (setting [2]), the lanosterol is listed as 0.00. Further, the lathosterol in data set [1] (setting [2]) is given as 0.00. Further, the “zymosterol+7-dehydrocholesterol” value in data set [1] (setting [2]) worked out at 0.00.
